Where a SMILES comes first, the peptide text is derived from it.

This is an account of results in article PMC11477294, “In Vitro Profiling of the Antiviral Peptide TAT-I24” (International Journal of Molecular Sciences, 2024).

Data set [1] deals with baculovirus expressing luciferase under the control of the CMV promoter. In kind it is cell-based. The note with it: luciferase reporter gene expression in HEK293 cells transduced with baculovirus-luc, MOI 5, 24 h post-infection; 1:3 peptide dilution series; non-linear regression; n = 8. The protocol: A baculovirus expressing luciferase under the control of the CMV promoter has been described previously. HEK293 cells were seeded at a density of 2 × 10^4 cells/100 µL per well in 96-well plates (Sarstedt, Germany). On the next day, cells were treated with a 1:3 dilution series of peptides and, without further pre-incubation, subsequently infected with baculovirus–luc at a multiplicity of infection (MOI) of 5. Cells were lysed 24 h post-infection using 20 µL Cell Culture Lysis Reagent (Promega, Mannheim, Germany). From the lysates, 10 µL was transferred to white 96-well plates, and luciferase was recorded using a luciferase assay system and a GloMax®-Multi Detection System (Promega, Mannheim, Germany).
In general terms: In a reporter assay the amount or activity of a reporter protein is the signal.

Another data set has as its system HEK293 cells. Briefly: Cell viability assay (CellTiter-Blue) in HEK293 cells. In kind it is cell-based. Particulars: 72 h at 37 °C, 3-fold dilution series starting with 20 µM, triplicate, non-linear regression (curve fit). The protocol:
HEK293 cells were seeded at a density of 2.5 × 10^3 cells/100 µL per well in a 96-well plate (Sarstedt, Germany). In addition, a serial 1:2 dilution of the cell suspension was added to each plate to generate a standard curve. On the next day, cells were treated with serial 1:3 peptide dilutions in triplicate and incubated for 72 h at 37 °C. Then, 20 µL of CellTiter-Blue® Cell Viability Assay (Promega, Mannheim, Germany) was added to each well and incubated at 37 °C for a further 1–2 h. Fluorescence was recorded using a GloMax®-Multi Detection System (Promega, Mannheim, Germany). The percentage of viable cells was calculated from the cell dilution series from each plate by linear regression analysis. The selectivity index was calculated using the following formula: SI = CC50/IC50.
Figure S1. Cell viability assay in HEK293 cells in the presence of peptides. Cells were incubated with 3 -fold dilution series of peptides starting with a concentration of 20 µM for 72 hours and measured using the Cell Titer Blue assay. Curve fitting of % viable cells of untrea ted control was performed using Graph Pad Prism softwar e.
(1 picture or pasted object on this page, not shown here)
(In general: Alamar Blue is a resazurin reagent that responds to reducing activity.)

Data set [2] deals with human red blood cells (RBCs). Briefly: Hemolysis assay with red blood cells. It is filed as cell-based. Particulars: 1 h at 37 °C. The procedure: Blood from healthy volunteers was collected by venipuncture (Greiner Bio-One, Kremsmünster, Austria) into K2E K2EDTA VacuetteTM tubes (Greiner Bio-One, Kremsmünster, Austria) with 4 mL blood. The assay for hemolysis was adapted from Sæbo et al.. Blood was centrifuged at 1000× g for 10 min, and plasma was kept for further use. Red blood cells were then resuspended in 10 mL PBS and centrifuged again at 1000× g for a total of three times. Cells were then counted using a hemocytometer and seeded at a cell number of 1 × 10^7 cells/100 µL PBS per well in conical 96-well plates (ThermoFisher, Darmstadt, Germany). Next, 1:2 peptide dilutions starting from 40 µM either in PBS or 10% donor serum were prepared, and 100 µL was added to 100 µL of RBC. Plates were then incubated for one hour at 37 °C. As the positive control, three wells with 100 µL RBCs were treated with 100 µL PBS + 0.5% Triton X-100. After incubation, plates were centrifuged at 1000× g for 5 min and supernatants were transferred to flat 96-well plates. Optical density (OD) was determined at 450 nm using a GloMax®-Multi Detection System (Promega, Mannheim, Germany). Images from RBCs from light microscopy and centrifuged plates were taken using an iPhone 12 mini.

The next data set deals with human PBMCs. Briefly: LPS-induced cytokine release in PBMCs (ELISA). In kind it is cell-based. Particulars: three peptide concentrations, 0.25 µg/mL LPS, 24 h, duplicate, versus control without peptides. The protocol:
Isolation of PBMCs was performed by adding 3 mL blood on a 3 mL layer of Histopaque-1077 (Sigma Aldrich, Schnelldorf, Germany) and centrifuged at 400× g for 30 min at room temperature with the lowest brake and acceleration settings. After centrifugation, plasma was aspirated and the PBMC layer was transferred to a 15 mL conical centrifugation tube. Cells were resuspended in 10 mL PBS, followed by centrifugation at 250× g for 10 min. The cell pellet was resuspended in 5 mL PBS, followed by centrifugation at 250× g for 10 min for a total of three times. Finally, the pellet was resuspended in 1 mL cell culture medium supplemented with 10% FCS. Cells were then seeded in a 48-well plate at 2.5 × 10^5 cells/125 µL per well, treated with 125 µL peptide dilutions in the absence and presence of 0.25 µg/mL lipopolysaccharide (LPS) from Escherichia coli (Sigma-Aldrich, Schnelldorf, Germany) and incubated at 37 °C for 24 h. Supernatants were then collected for subsequent analysis by ELISA.
ELISA was performed using human tumor necrosis factor-α (TNF-α) and interleukin-6 (IL-6) ELISA MAX^TM De Luxe Sets from Biolegend (San Diego, CA, USA) according to the manufacturer’s instructions. Supernatants were diluted 1:5 for TNF-α and 1:500 for IL-6.
In general terms: In an ELISA, binding on a coated surface is turned into a signal by an enzyme label.

Data set [3] can be described thus: Oligomerization/aggregation by SDS-PAGE with Coomassie stain. In kind it is physicochemical. Particulars: 48 h at 37 °C in PBS or PBS with 10% FCS. The protocol:
For determination of peptide stability, 20 µg peptide was added to 50 µL PBS or PBS with 10% FCS and incubated for 48 h at 37 °C or stored at −20 °C. For non-reducing conditions, 4 µL peptide solution was mixed with 1 µL H2O and 5 µL Novex™ Tricine SDS Sample Buffer (2×) (ThermoFisher, Darmstadt, Germany). For reducing conditions, 4 µL peptide solution was mixed with 1 µL NuPAGE™ Sample Reducing Agent (10×) (Invitrogen by Thermo Fisher Scientific) and 5 µL Novex™ Tricine SDS Sample Buffer (2×). Samples were then heated to 85 °C for 10 min. A total of 10 µL was then loaded onto each well of 10–20% Novex™ Tricine, 1.0 mm, Mini Protein Gels (Invitrogen/ThermoFisher, Waltham, MA, USA) and run in 1× Novex™ Tricine SDS Running Buffer (Invitrogen/ThermoFisher, Waltham, MA, USA) for 90 min at 100 V. After electrophoresis, gels were fixed with 40% methanol and 10% acetic acid followed by staining with 0.1% Coomassie brilliant blue R250 (Sigma-Aldrich, Schnelldorf, Germany) in 40% methanol and 10% acetic acid for one hour and destaining using fixing solution.

Regarding `CC(C)C[C@H](NC(=O)[C@H](CS)NC(=O)[C@H](CCC(N)=O)NC(=O)[C@@H]1CCCN1C(=O)[C@@H]1CCCN1C(=O)[C@H](CCCNC(=N)N)NC(=O)[C@H](CCCNC(=N)N)NC(=O)[C@H](CCCNC(=N)N)NC(=O)[C@H](CCC(N)=O)NC(=O)[C@H](CCCNC(=N)N)NC(=O)[C@H](CCCNC(=N)N)NC(=O)[C@H](CCCCN)NC(=O)[C@H](CCCCN)NC(=O)[C@H](CCCNC(=N)N)NC(=O)CN)C(=O)N[C@@H](C)C(=O)N[C@@H](Cc1ccccc1)C(=O)N[C@@H](Cc1ccc(O)cc1)C(=O)N[C@@H](C)C(=O)N[C@@H](CS)C(=O)N[C@@H](Cc1ccccc1)C(=O)N[C@@H](CS)C(=O)O` [TAT-I24] (H-GRKKRRQRRRPPQCLAFYACFC-OH), the midpoint of inhibition in data set [1], the IC50, lay at 50 nM. For the same compound, the “HEK293 CC50” value in the data set on HEK293 cells was 124000 nM. For the same compound, the “hemolysis of human RBCs” value in data set [2] (peptide dilutions in PBS or PBS + 10% donor serum, concentrations < 20 µM (1:2 dilutions), OD 450 nm of supernatants, n = 6) is on record as “neither induce hemolysis”. In data set [2] (peptide dilutions prepared in PBS, up to 20 µM), the “swelling of RBCs (pellet size after centrifugation)” value was “Swelling of red blood cells”. Further, in the data set on human PBMCs, the “LPS-induced IL-6 release” value was “No significant differences” and the “LPS-induced TNF-α release” value was “No significant differences”. Moreover, the “oligomer formation, SDS-PAGE under reducing conditions” value in data set [3] (10–20% Tricine gel, Coomassie Brilliant Blue stain) is listed as “additional weak higher molecular weight smear around 45 kDa”. Besides, the “oligomer formation, SDS-PAGE under non-reducing conditions” value in data set [3] (SDS loading buffer without reducing agent, Coomassie stain) was “only faint bands of monomers”.
